Measurements from patent US7101878B1 (Agouron Pharmaceuticals, Inc., priority 1998, dated 2006).
Read-outs that look alike come from different tables or passages of the source.

Tests used:
[1] = target: T1, human GnRH receptor (Homo sapiens, UniProt P30968); test: Radioligand binding, 125I-GnRH-A displacement, membranes of HEK 293 cells with human GnRH receptor
T1 construct: expressed in transfected cells; host or cells: HEK 293 (hGnRH-R/293, from Dr. Stuart Sealfon)
T1 sequence (P30968 1-328): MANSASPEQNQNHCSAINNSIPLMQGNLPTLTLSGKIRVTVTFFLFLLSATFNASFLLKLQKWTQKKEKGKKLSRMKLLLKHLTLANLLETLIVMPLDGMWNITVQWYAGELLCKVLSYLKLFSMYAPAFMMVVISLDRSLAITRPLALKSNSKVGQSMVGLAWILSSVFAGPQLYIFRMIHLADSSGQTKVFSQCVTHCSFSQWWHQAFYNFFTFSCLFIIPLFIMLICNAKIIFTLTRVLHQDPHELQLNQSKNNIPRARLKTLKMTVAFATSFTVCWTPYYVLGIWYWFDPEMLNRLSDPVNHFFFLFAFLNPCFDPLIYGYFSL
Method in brief: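 After filtration and PBS washes, bound radioactivity was counted by scintillation and IC50 derived. Identical conditions applied for non-human receptors.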

[2] = target: T2, bovine GnRH receptor (Bos taurus, UniProt P32236); test: Radioligand binding, 125I-GnRH-A, bovine pituitary membranes
T2 construct: membranes were prepared from bovine pituitary; from tissue; host or cells: bovine pituitary
T2 sequence (P32236 1-328): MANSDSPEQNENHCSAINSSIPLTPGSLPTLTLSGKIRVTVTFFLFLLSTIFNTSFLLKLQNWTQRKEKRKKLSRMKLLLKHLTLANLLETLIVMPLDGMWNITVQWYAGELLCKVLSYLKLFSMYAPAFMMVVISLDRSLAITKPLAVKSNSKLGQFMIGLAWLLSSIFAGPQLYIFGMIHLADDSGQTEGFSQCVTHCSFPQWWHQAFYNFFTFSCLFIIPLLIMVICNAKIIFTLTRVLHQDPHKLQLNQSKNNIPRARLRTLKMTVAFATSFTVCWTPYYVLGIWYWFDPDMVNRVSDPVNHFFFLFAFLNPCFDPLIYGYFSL
Method in brief: (§1)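 Bound label captured on 0.1% polyethyleneimine-treated GF/C filters, washed three times with PBS, counted. IC50 derived; identical set-up for every species.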

[3] = target: T3, mouse GnRH receptor (Mus musculus, UniProt Q01776); test: Radioligand binding, 125I-GnRH-A, 293 cells expressing mouse GnRH receptors
T3 construct: expressed in transfected cells; host or cells: 293 cells
T3 sequence (Q01776 1-327): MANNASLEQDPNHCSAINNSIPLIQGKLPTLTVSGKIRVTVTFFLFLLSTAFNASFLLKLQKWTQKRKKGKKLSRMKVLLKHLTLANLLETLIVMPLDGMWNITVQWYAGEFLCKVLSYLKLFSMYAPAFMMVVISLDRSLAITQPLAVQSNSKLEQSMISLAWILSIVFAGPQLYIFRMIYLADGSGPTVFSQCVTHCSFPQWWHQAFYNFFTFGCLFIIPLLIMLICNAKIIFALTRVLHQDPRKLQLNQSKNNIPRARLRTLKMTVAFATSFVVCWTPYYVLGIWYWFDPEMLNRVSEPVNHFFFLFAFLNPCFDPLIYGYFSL
Method in brief: as §1

[4] = target: T4, hGnRH receptor (Homo sapiens, UniProt P30968); test: Total inositol phosphates measurement, 293 cells containing the hGnRH receptor; assay type: cell-based; conditions: no species or readout annotated
T4 construct: expressed in transfected cells; host or cells: HEK 293 (hGnRH-R/293, from Dr. Stuart Sealfon)
T4 sequence (P30968 1-328): T1 sequence (P30968 1-328)
Protocol: To assess the activity of the compounds as agonists or antagonists, an assay measuring accumulation of total inositol phosphates was employed. 293 cells containing the hGnRH receptor were plated onto 24-well plates (approximately 200,000 cells/well) using DMEM media. […] The medium was aspirated and the cells rinsed with serum-free DMEM. The medium was aspirated and the cells were then treated with test compounds or vehicle for 30 minutes at 37° C. […] The media was replaced with ice-cold 10 mM formic acid, which stopped the reaction and also served to extract cellular lipids. Inositol phosphates were separated by ion-exchange chromatography on Dowex columns, which were washed with 2.5 mL of 10 mM myoinositol and 10 mM formic acid. The columns were then washed with 5 mL of 60 mM sodium formate and […], and total inositol phosphates were eluted with 5 mL 1M ammonium formate, 0.1 M formic acid. The column eluates were added to liquid scintillation vials containing 15 ml of scintillation cocktail and were counted by liquid scintillation counting.
(§2) This cell line was provided by Dr. Stuart Sealfon, Mount Sinai Medical School New York, N.Y. These cells were grown in DMEM supplemented with 0.2 g/L G418 100 U/ml penicillin/streptomycin and 10% FBS. Both GGH3 and hGnRH-R/293 cells were utilized for both for both total inositol phosphate measurement and for microphysiometry assessment of compound efficacy.

[5] = Pharmacokinetic studies / bioavailability in rats; assay type: in vivo, rat; conditions: for half-life / Cmax / Tmax: rat, plasma; for Cmax / Tmax: po
[6] = Metabolism rate, pmol/min/mg at 1 μM, human; assay type: in vitro ADME; conditions: 1 μM compound
[7] = Metabolism rate, pmol/min/mg at 1 μM, rat male; assay type: in vitro ADME; conditions: 1 μM compound
[8] = target: T5, rat GnRH receptor (Rattus norvegicus, UniProt P30969); test: Radioligand binding, 125I-GnRH-A, rat pituitary membranes; design: membranes were prepared from rat pituitary; from tissue; host or cells: rat pituitary; conditions: read-out: rGnRH IC50
T5 sequence (P30969 1-327): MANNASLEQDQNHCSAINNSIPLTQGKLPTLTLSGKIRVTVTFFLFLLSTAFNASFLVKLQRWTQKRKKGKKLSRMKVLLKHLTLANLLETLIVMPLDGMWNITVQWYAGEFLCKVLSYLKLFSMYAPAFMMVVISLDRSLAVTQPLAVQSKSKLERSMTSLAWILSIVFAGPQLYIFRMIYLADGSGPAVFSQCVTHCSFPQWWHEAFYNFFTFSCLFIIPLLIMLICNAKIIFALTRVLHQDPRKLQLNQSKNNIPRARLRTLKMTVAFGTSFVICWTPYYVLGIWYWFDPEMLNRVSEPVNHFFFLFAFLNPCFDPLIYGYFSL
Method in brief: as §1

[9] = target: 5-HT7 (Homo sapiens, UniProt P34969); test: Selectivity: 5-HT7
[10] = target: D2 Dopamine (Homo sapiens, UniProt P14416); test: Selectivity: D2 Dopamine
[11] = Metabolism rate, pmol/min/mg at 1 μM, rat female; assay type: in vitro ADME; conditions: 1 μM compound
[12] = Metabolism rate, pmol/min/mg at 1 μM, dog; assay type: in vitro ADME; conditions: 1 μM compound
[13] = Metabolism rate, pmol/min/mg at 1 μM, monkey; assay type: in vitro ADME; conditions: 1 μM compound
[14] = target: T5, rat GnRH receptor; test: Microphysiometry, extracellular acidification rate, GGH3 cells; assay type: cell-based; conditions: agonist alone
Protocol: These cells have been extensively characterized previously (Kaiser et al., 1997). These cells were grown in low glucose Dulbecco's modified Eagle's medium (DMEM) containing: 100U/mL penicillin/streptomycin, 0.6 g/L G418 and 10% beat-inactivated fetal bovine serum
as §2
The Cytosensor®Microphysiometer (Molecular Devices, Sunnyvale, Calif.) is a real-time, noninvasive, nonradioactive semiconductor-based system for monitoring the cellular responses to various stimuli. It is based on a pH-sensitive silicon sensor, the light-addressable potentiometric sensor which forms part of a microvolume flow chamber in which cultured cells are immobilized (Pitchford et al., 1995; Parce et al., 1989; Owicki, et al. 1994).
GGH3 cells were seeded in low-buffered minimal essential media (MEM, Sigma) containing 25 mM NaCl and 0.1% BSA at a density of 500,000 cells/capsule onto the polycarbonate membrane (3 μm porosity) of cell capsule cups (Molecular Devices, Sunnyvale, Calif.). Capsule cups were transferred to sensor chambers where cells were held in close apposition to a silicon sensor within a sensor chamber, which measures small changes in pH in the microvolume of the sensor chamber. Low-buffered medium was pumped continuously across the cells at a rate of approximately 100 μl/min from one of two fluid reservoirs. A selection valve determined which reservoir from which fluid was perifused onto the cells.
The Cytosensor®Microphysiometer generates a voltage signal, which is a linear function of pH, every second. In order to measure acidification rates, flow to the sensor chamber containing the cells was periodically interrupted, allowing for excreted acidic metabolites to build up in the extracellular fluid of the cells. In these experiments, cells were maintained at 37° C. on a two minute flow cycle with cells being perfused with media for 80 seconds followed by 40 seconds in which the flow of media was stopped. During this 40 second interval, acidification rates were measured for a 30 sec interval. In this fashion, a single acidification rate was calculated every two min. The Cytosensor®Microphysiometer device contains eight such sensor units, allowing for eight simultaneous experiments to be performed. Each unit was individually programmed utilizing a computer linked to the system.
GGH3 cells were initially equilibrated in the low-buffered MEM media for a period of 30-60 min in which basal acidification rates (measured as μV/sec), in the absence of any stimuli, were monitored. When the basal rate of acidification changed by less than ten percent over a period of twenty minutes, experiments were initiated. Time course experiments were performed to determine the optimal time for agonist exposure prior to acidification rate measurement and the duration of exposure needed to obtain peak acidification responses to various agonists. From these time course experiments, it was determined that cells should be exposed to GnRH peptide agonists at least one minute prior to collection of acidification rate data. Peak acidification rates usually occurred in the first two-minute exposure cycle. In order to capture the peak response to GnRH, cells were exposed to the agonist for a total of four minutes. […] All compounds were tested in a final concentration of 1% DMSO in low-buffered MEM media described above.

[15] = female, 10 mg/kg, rat female, p.o. 10 mg/kg, 5 mg/ml solution in 10% DMSO 10% cremophor 80% saline
[16] = male, 20 mg/kg, rat male, p.o. 20 mg/kg, vehicle per footnote (DMSO/cremophor/saline)

Chain of 5-HT7 (P34969 whole entry, species assumed): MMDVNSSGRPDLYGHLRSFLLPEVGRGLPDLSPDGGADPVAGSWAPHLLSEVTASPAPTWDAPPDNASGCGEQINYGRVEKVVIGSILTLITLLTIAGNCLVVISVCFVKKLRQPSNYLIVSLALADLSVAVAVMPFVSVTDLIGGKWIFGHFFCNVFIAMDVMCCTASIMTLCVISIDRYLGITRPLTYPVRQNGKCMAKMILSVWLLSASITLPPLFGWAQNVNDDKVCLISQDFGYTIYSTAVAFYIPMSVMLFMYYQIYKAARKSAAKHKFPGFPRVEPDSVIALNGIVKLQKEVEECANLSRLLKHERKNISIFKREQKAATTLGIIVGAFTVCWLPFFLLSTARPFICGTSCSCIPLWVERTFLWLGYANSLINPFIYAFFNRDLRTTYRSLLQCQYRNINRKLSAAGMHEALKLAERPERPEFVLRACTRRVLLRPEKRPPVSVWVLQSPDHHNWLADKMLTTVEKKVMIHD
Chain of D2 Dopamine (P14416 whole entry): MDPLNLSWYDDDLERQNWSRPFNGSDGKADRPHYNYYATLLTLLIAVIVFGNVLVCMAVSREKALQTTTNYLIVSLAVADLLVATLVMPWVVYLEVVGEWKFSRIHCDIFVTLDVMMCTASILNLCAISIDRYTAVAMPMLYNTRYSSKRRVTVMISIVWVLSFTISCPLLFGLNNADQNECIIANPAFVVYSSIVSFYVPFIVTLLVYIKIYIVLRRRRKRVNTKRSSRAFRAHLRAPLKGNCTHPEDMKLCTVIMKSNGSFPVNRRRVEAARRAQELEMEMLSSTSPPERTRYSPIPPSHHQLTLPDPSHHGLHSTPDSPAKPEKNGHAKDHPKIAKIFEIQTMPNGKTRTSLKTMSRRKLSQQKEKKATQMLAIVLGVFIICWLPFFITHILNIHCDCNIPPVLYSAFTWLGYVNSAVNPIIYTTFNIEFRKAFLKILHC

Row | Structure (SMILES) | IC50 ([1]; read-out: hGnRH IC50) [nM] | IC50 ([2]; read-out: bGnRH IC50) [nM] | IC50 ([3]; read-out: mGnRH IC50) [nM] | GnRH functional [4] | half-life ([5]; male, iv, 10 mg/kg, rat male) [h] | Human pmol/min/mg 1 μM [6] [pmol/min/mg] | Rat male pmol/min/mg 1 μM [7] [pmol/min/mg] | IC50 [8] [nM] | also measured
1 | Cc1cc2c(cc1Cc1ccc(C(=O)NC[C@H]3CC[C@@H](CNC(=N)N)CC3)o1)C(C)(C)CCC2(C)C [Compound 23] | 220 | 2830 | 2100 | Antag- onist | 0.8 | 263 | 141 | 730 | IC50 ([1]; second value marked * (mostly in parentheses), asterisk not explained, read-out: hGnRH IC50, value marked *): 40 nM
2 | Cc1cc2c(cc1Cc1ccc(C(=O)NCC3CCCCC3)o1)C(C)(C)CCC2(C)C [Compound 36] | 215 | 12500 | 3800 | Antag- onist | – | – | – | 2900 | –
3 | COc1cccc(OC)c1NC(=O)c1ccc(Cc2c(C)cc(C)c(Br)c2C)o1 [Compound 140] | 110 | – | 320 | – | – | 497 | 2521 | 530 | Cmax [5, 15]: 440 nM; Tmax [5, 15]: 1 h; half-life ([5]; female, rat female): 4.6 h; Fp.o. ([5]; rat female, 5 mg/ml solution in 10% DMSO 10% cremophor 80% saline): 59% (10 mg/kg)^10; Ki [9]: > 4400 nM; Ki [10]: 2300 nM
4 | Cc1cc2c(cc1Cc1ccc(C(=O)NCc3cccc(CNc4nccc(NC[C@@H]5CCCO5)n4)c3)o1)C(C)(C)CCC2(C)C [Compound 148] | 12 | – | 1.3 | – | 1.1 | 248 | 1414 | 1.6 | Cmax [5, 16]: 30 nM; Tmax [5, 16]: 2 h; Fp.o. ([5]; rat male, p.o. 20 mg/kg, vehicle per footnote (DMSO/cremophor/saline)): 3% (20 mg/kg)^1; Rat female pmol/min/mg 1 μM [11]: 133 pmol/min/mg; Dog pmol/min/mg 1 μM [12]: 1960 pmol/min/mg; Monkey pmol/min/mg 1 μM [13]: 5019 pmol/min/mg
5 | CC(C)C[C@H](NC(=O)CNC(=O)[C@H](Cc1ccc(O)cc1)NC(=O)[C@H](CO)NC(=O)[C@H](Cc1c[nH]c2ccccc12)NC(=O)[C@H](Cc1c[nH]cn1)NC(=O)[C@@H]1CCC(=O)N1)C(=O)N[C@@H](CCCNC(=N)N)C(=O)N1CCC[C@H]1C(=O)NCC(N)=O [GnRH, reference compound] | – | – | – | – | – | – | – | – | IC50 ([2]; means ± SE of at least three experiments performed in duplicate, read-out: Bovine IC50): 13 ± 2 nM; IC50 ([3]; Mouse IC50, means ± SE of at least three experiments performed in duplicate): 11 ± 2 nM; extracellular acidification rate of GGH3 cells [14]: dose-dependent increase in the extracellular acidification rate
